Test system: subjects with T2DM and renal impairment
Assay: Phase 2a: continuous glucose monitoring (CGM)
Type: in vivo, human
Conditions: ITT; for Percentage of time CGM Glucose in Clinically Significant Hypoglycemia (<54 mg/dL), Difference in LS Mean Change (vs Placebo) / Percentage of time CGM Glucose in Clinically Significant Hypoglycemia (<54 mg/dL), LS Mean Change / Average CGM Glucose Over 7-Day Periods, Difference in LS Mean Change (vs Placebo) / Average CGM Glucose Over 7-Day Periods, LS Mean Change / Percentage of time CGM Glucose in Hyperglycemia (>180 mg/dL), Difference in LS Mean Change (vs Placebo) / Percentage of time CGM Glucose in Hyperglycemia (>180 mg/dL), LS Mean Change / Percentage of time CGM Glucose in Hypoglycemia (<70 mg/dl), Difference in LS Mean Change (vs Placebo) / Percentage of time CGM Glucose in Hypoglycemia (<70 mg/dl), LS Mean Change / Average CGM Glucose Over 7-Day Periods, Change from Baseline to End of Dosing Period, Mean / Average CGM Glucose Over 7-Day Periods, Change from Baseline to End of Dosing Period, Median / Percentage of time CGM Glucose in Hyperglycemia (>180 mg/dL), Change from Baseline to End of Dosing Period, Mean / Percentage of time CGM Glucose in Hyperglycemia (>180 mg/dL), Change from Baseline to End of Dosing Period, Median: baseline Days −8 to −2; for Percentage of time CGM Glucose in Clinically Significant Hypoglycemia (<54 mg/dL), Difference in LS Mean Change (vs Placebo) / Percentage of time CGM Glucose in Clinically Significant Hypoglycemia (<54 mg/dL), LS Mean Change / Average CGM Glucose Over 7-Day Periods, Difference in LS Mean Change (vs Placebo) / Average CGM Glucose Over 7-Day Periods, LS Mean Change / Percentage of time CGM Glucose in Hyperglycemia (>180 mg/dL), Difference in LS Mean Change (vs Placebo) / Percentage of time CGM Glucose in Hyperglycemia (>180 mg/dL), LS Mean Change / Percentage of time CGM Glucose in Hypoglycemia (<70 mg/dl), Difference in LS Mean Change (vs Placebo) / Percentage of time CGM Glucose in Hypoglycemia (<70 mg/dl), LS Mean Change / Time in target range, LS Mean Change: ANCOVA
Procedure: Cotadutide was titrated from 50 μg up to 300 μg and administered once daily by subcutaneous (SC) injection over 32 days.
Cotadutide was administered at 50 μg once daily for 4 days, followed by 100 μg daily for 7 days, 200 μg daily for 7 days, and 300 μg daily for 14 days (n=20). Placebo was administered one daily for 32 days (n=20). Cotadutide and placebo were administered in the morning. Dosing commenced following predose baseline vital signs, blood tests (including HbA1c), an electrocardiogram (ECG), body weight measurement, and bioimpedance spectroscopy (BIS). Subjects then returned for daily dosing or remained overnight locally until Day 5, and thereafter, had visits at weekly intervals until a maintenance dose of 300 μg was established. Thus, Cotadutide or placebo was administered at the study site by study personal for the first four doses and on site on Days 5, 12, 19, and 32. At all other times, subjects preformed dosing at home.
A Freestyle Libre® Pro CGM device was used to measure interstitial glucose levels. […] Data generated by CGM was used at visits to adjust insulin doses and other treatments.
The CGM sensor, which is a small plastic circular device of 35 mm diameter and 5 mm depth, was applied to the back of the upper arm. Subjects wore the CGM sensor continuously up until the time of a sensor change, which was to occur within 14 days, and they were advised that they could bathe and shower, and swim in up to 3 m depth for up to 30 minutes while wearing the CGM sensor. When the CGM sensor was removed, a new CGM sensor could be reapplied, ideally close to the original site, but with the subject's site preference taken into account. CGM sensors were single-use only.
If a subject was unable to tolerate wearing the CGM sensor for the entire duration of the study, the sensor was removed; but the subject was to remain in the study with or without continued CGM and could instead be instructed to monitor capillary plasma glucose measurements four times per day (before meals and before bedtime) and record these levels in the diary provided.
Subjects underwent continuous glucose monitoring (CGM) starting from Day −14 to Day 40 (±5 days), with sensor changes within 14-day intervals. CGM readings were used to analyze change in average CGM glucose and glucose AUC7 d, coefficient of variation as a marker of glycemic variability, and time spent in target glucose range and hypoglycemia, to enable comparison across different dose levels.

[1] = 50 μg (Days 1 to 4, not 7 days)
[2] = 100 μg Dose (Days 5 to 11), Insulin Dose < 20 U/day
[3] = 100 μg Dose (Days 5 to 11), Insulin Dose ≥ 20 U/day
[4] = 100 μg Dose (Days 5 to 11), Total
[5] = 200 μg Dose (Days 12 to 18), Insulin Dose < 20 U/day
[6] = 200 μg Dose (Days 12 to 18), Insulin Dose ≥ 20 U/day
[7] = 200 μg Dose (Days 12 to 18), Total

CCCCCCCCCCCCCCCC(=O)N[C@@H](CCC(=O)NCCCC[C@H](NC(=O)[C@H](CC(=O)O)NC(=O)[C@H](CO)NC(=O)[C@@H](NC(=O)[C@H](Cc1ccccc1)NC(=O)[C@@H](NC(=O)CNC(=O)[C@H](CCC(N)=O)NC(=O)[C@H](CO)NC(=O)[C@@H](N)Cc1c[nH]cn1)[C@@H](C)O)[C@@H](C)O)C(=O)N[C@@H](CO)C(=O)N[C@@H](CCC(=O)O)C(=O)N[C@@H](Cc1ccc(O)cc1)C(=O)N[C@@H](CC(C)C)C(=O)N[C@@H](CC(=O)O)C(=O)N[C@@H](CO)C(=O)N[C@@H](CCC(=O)O)C(=O)N[C@@H](CCCNC(=N)N)C(=O)N[C@@H](C)C(=O)N[C@@H](CCCNC(=N)N)C(=O)N[C@@H](CC(=O)O)C(=O)N[C@@H](Cc1ccccc1)C(=O)N[C@H](C(=O)N[C@@H](C)C(=O)N[C@@H](Cc1c[nH]c2ccccc12)C(=O)N[C@@H](CC(C)C)C(=O)N[C@@H](CCC(=O)O)C(=O)N[C@@H](C)C(=O)NCC(=O)NCC(=O)O)C(C)C)C(=O)O [Cotadutide]
Percentage of time CGM Glucose in Clinically Significant Hypoglycemia (<54 mg/dL), Difference in LS Mean Change (vs Placebo) [1]: 5.28%
Percentage of time CGM Glucose in Clinically Significant Hypoglycemia (<54 mg/dL), LS Mean Change [1]: 4.79%
Average CGM Glucose Over 7-Day Periods, End of Dosing Period, Mean (100 μg (Days 5 to 11)): 127.599 mg/dL
Average CGM Glucose Over 7-Day Periods, End of Dosing Period, Median (100 μg (Days 5 to 11)): 122.769 mg/dL
Percentage of time CGM Glucose in Hyperglycemia (>180 mg/dL), End of Dosing Period, Mean (100 μg (Days 5 to 11)): 10.46%
Percentage of time CGM Glucose in Hyperglycemia (>180 mg/dL), End of Dosing Period, Median (100 μg (Days 5 to 11)): 3.72%
Average CGM Glucose Over 7-Day Periods, Difference in LS Mean Change (vs Placebo) (100 μg (Days 5 to 11)): -46.73 mg/dL
Average CGM Glucose Over 7-Day Periods, LS Mean Change (100 μg (Days 5 to 11)): -36.35 mg/dL
Percentage of time CGM Glucose in Clinically Significant Hypoglycemia (<54 mg/dL), Difference in LS Mean Change (vs Placebo) (100 μg (Days 5 to 11)): 2.25%
Percentage of time CGM Glucose in Clinically Significant Hypoglycemia (<54 mg/dL), LS Mean Change (100 μg (Days 5 to 11)): 1.41%
Percentage of time CGM Glucose in Hyperglycemia (>180 mg/dL), Difference in LS Mean Change (vs Placebo) (100 μg (Days 5 to 11)): −29.72%
Percentage of time CGM Glucose in Hyperglycemia (>180 mg/dL), LS Mean Change (100 μg (Days 5 to 11)): −24.62%
Percentage of time CGM Glucose in Hypoglycemia (<70 mg/dl), Difference in LS Mean Change (vs Placebo) (100 μg (Days 5 to 11)): 2.80%
Percentage of time CGM Glucose in Hypoglycemia (<70 mg/dl), LS Mean Change (100 μg (Days 5 to 11)): 2.26%
Average CGM Glucose Over 7-Day Periods, Change from Baseline to End of Dosing Period, Mean (100 μg (Days 5 to 11)): -35.628 mg/dL
Average CGM Glucose Over 7-Day Periods, Change from Baseline to End of Dosing Period, Median (100 μg (Days 5 to 11)): -31.685 mg/dL
Percentage of time CGM Glucose in Hyperglycemia (>180 mg/dL), Change from Baseline to End of Dosing Period, Mean (100 μg (Days 5 to 11)): −24.45%
Percentage of time CGM Glucose in Hyperglycemia (>180 mg/dL), Change from Baseline to End of Dosing Period, Median (100 μg (Days 5 to 11)): −19.57%
Time in target range, LS Mean Change [2]: 26.25%
Time in target range, LS Mean Change [3]: 3.59%
Time in target range, LS Mean Change [4]: 12.25%
Percentage of Time CGM Glucose Within Target Range (70-180 mg/dL), Mean [2]: 94.44%
Percentage of Time CGM Glucose Within Target Range (70-180 mg/dL), Median [2]: 97.79%
Time in target range, Change from Baseline (Days −8 to −2), Mean [2]: 31.19%
Time in target range, Change from Baseline (Days −8 to −2), Median [2]: 33.99%
Time in target range, Difference in LS Mean Change (vs Placebo) [2]: 44.84%
Percentage of Time CGM Glucose Within Target Range (70-180 mg/dL), Mean [3]: 66.51%
Percentage of Time CGM Glucose Within Target Range (70-180 mg/dL), Median [3]: 77.04%
Time in target range, Change from Baseline (Days −8 to −2), Mean [3]: 2.53%
Time in target range, Change from Baseline (Days −8 to −2), Median [3]: 12.04%
Time in target range, Difference in LS Mean Change (vs Placebo) [3]: 8.32%
Percentage of Time CGM Glucose Within Target Range (70-180 mg/dL), Mean [4]: 75.82%
Percentage of Time CGM Glucose Within Target Range (70-180 mg/dL), Median [4]: 84.38%
Time in target range, Change from Baseline (Days −8 to −2), Mean [4]: 11.58%
Time in target range, Change from Baseline (Days −8 to −2), Median [4]: 14.94%
Time in target range, Difference in LS Mean Change (vs Placebo) [4]: 22.74%
Average CGM Glucose Over 7-Day Periods, End of Dosing Period, Mean (200 μg (Days 12 to 18)): 131.724 mg/dL
Average CGM Glucose Over 7-Day Periods, End of Dosing Period, Median (200 μg (Days 12 to 18)): 121.570 mg/dL
Percentage of time CGM Glucose in Hyperglycemia (>180 mg/dL), End of Dosing Period, Mean (200 μg (Days 12 to 18)): 14.77%
Percentage of time CGM Glucose in Hyperglycemia (>180 mg/dL), End of Dosing Period, Median (200 μg (Days 12 to 18)): 6.61%
Average CGM Glucose Over 7-Day Periods, Difference in LS Mean Change (vs Placebo) (200 μg (Days 12 to 18)): -40.34 mg/dL
Average CGM Glucose Over 7-Day Periods, LS Mean Change (200 μg (Days 12 to 18)): -30.66 mg/dL
Percentage of time CGM Glucose in Clinically Significant Hypoglycemia (<54 mg/dL), Difference in LS Mean Change (vs Placebo) (200 μg (Days 12 to 18)): 0.43%
Percentage of time CGM Glucose in Clinically Significant Hypoglycemia (<54 mg/dL), LS Mean Change (200 μg (Days 12 to 18)): −0.21%
Percentage of time CGM Glucose in Hyperglycemia (>180 mg/dL), Difference in LS Mean Change (vs Placebo) (200 μg (Days 12 to 18)): −25.47%
Percentage of time CGM Glucose in Hyperglycemia (>180 mg/dL), LS Mean Change (200 μg (Days 12 to 18)): −19.24%
Percentage of time CGM Glucose in Hypoglycemia (<70 mg/dl), Difference in LS Mean Change (vs Placebo) (200 μg (Days 12 to 18)): 0.86%
Percentage of time CGM Glucose in Hypoglycemia (<70 mg/dl), LS Mean Change (200 μg (Days 12 to 18)): −0.14%
Average CGM Glucose Over 7-Day Periods, Change from Baseline to End of Dosing Period, Mean (200 μg (Days 12 to 18)): -30.668 mg/dL
Average CGM Glucose Over 7-Day Periods, Change from Baseline to End of Dosing Period, Median (200 μg (Days 12 to 18)): -32.533 mg/dL
Percentage of time CGM Glucose in Hyperglycemia (>180 mg/dL), Change from Baseline to End of Dosing Period, Mean (200 μg (Days 12 to 18)): −19.36%
Percentage of time CGM Glucose in Hyperglycemia (>180 mg/dL), Change from Baseline to End of Dosing Period, Median (200 μg (Days 12 to 18)): −17.72%
Time in target range, LS Mean Change [5]: 21.04%
Time in target range, LS Mean Change [6]: 12.92%
Time in target range, LS Mean Change [7]: 15.62%
Percentage of Time CGM Glucose Within Target Range (70-180 mg/dL), Mean [5]: 89.01%
Percentage of Time CGM Glucose Within Target Range (70-180 mg/dL), Median [5]: 96.38%
Time in target range, Change from Baseline (Days −8 to −2), Mean [5]: 24.48%
Time in target range, Change from Baseline (Days −8 to −2), Median [5]: 23.79%
Time in target range, Difference in LS Mean Change (vs Placebo) [5]: 25.01%
Percentage of Time CGM Glucose Within Target Range (70-180 mg/dL), Mean [6]: 73.53%
Percentage of Time CGM Glucose Within Target Range (70-180 mg/dL), Median [6]: 79.59%
Time in target range, Change from Baseline (Days −8 to −2), Mean [6]: 11.20%
Time in target range, Change from Baseline (Days −8 to −2), Median [6]: 11.27%
Time in target range, Difference in LS Mean Change (vs Placebo) [6]: 18.72%
Percentage of Time CGM Glucose Within Target Range (70-180 mg/dL), Mean [7]: 78.69%
Percentage of Time CGM Glucose Within Target Range (70-180 mg/dL), Median [7]: 80.69%
Time in target range, Change from Baseline (Days −8 to −2), Mean [7]: 15.39%
Time in target range, Change from Baseline (Days −8 to −2), Median [7]: 14.44%
Time in target range, Difference in LS Mean Change (vs Placebo) [7]: 20.96%
